Several values for one entry are separate records, joined by “and”; a condition that tells them apart may be missing. Equal values may be shown once. Values belong to the substance of their own block, whether it stands above or below them.
Tests used:
[1] = parameters: species or system Balb/c mice; details: mouse, in vivo
Description: ^125I-OXavidinHABA was saturated in vitro with ST2210, purified from unbound ST2210 by ultrafiltration and intramuscularly injected into one hind limb of Balb/c mice. The same protocol was followed with regard to WTavidin.

[2] = Tissue localization in cryosections of avidinated muscle (immunofluorescence, haematoxylin/eosin); assay type: in vivo, Balb/c nude mice; details: 24 hrs from injection
Method: OXavidinHABA was evaluated for tissue localization in comparison to WTavidin in cryosections of avidinated tissues after intramuscular injection into one hind limb of Balb/c nude mice (Harlan, Udine Italy). The muscles were excised 24 hrs after treatment and serial cryosections were prepared from each sample. Each slide was stained with haematoxylin/eosin to evaluate the tissue morphology or incubated with a mouse anti avidin antibody (A5680, Sigma Aldrich, Italy) followed by anti mouse Alexa fluor 488 (Invitrogen, Milan Italy). Finally, slides were mounted with coverslips and observed under microscope.

[3] = Isothermal Titration Calorimetry of avidin/ST2210 interaction; assay type: binding; details: for KA / N (stoichiometry): ITC with ST2210; for association constants (KA): ITC with ST2210, text
[4] = BiotinDOTA (ST2210) binding capacity by HABA assay; details: WTavidin value assumed as 100%
[5] = assay type: in vivo, Balb/c nu/nu mice; details: for distribution of 111In-ST2210 in non target organs: mouse, in vivo
Method: After 48 hours from injection, the animals received intravenously (i.v.) 5 μg of ^111In-ST2210.
Groups of 5 animals were sacrificed at the indicated time points and radioactivity in the treated limb as well as in other non target organs measured by gamma counter (Camberra Packard, Schwadorf Austria).
One group of animals received a first intravenous dose of 5 μg of cold ST2210 24 hours prior to a second one of 5 μg ^111In-ST2210. The former occurred 24 hours after avidination. The animals were sacrificed 2 hours after i.v. injection of radiolabelled-ST2210 and radioactivity in the treated limb was measured by gamma counter as above.

[6] = Long term tissue permanence of wild type and oxidized avidins; assay type: in vivo, Balb/c nu/nu mice; details: referred to the 1 hour level; treated hind limb
[7] = parameters: species or system Balb/c nu/nu mice; details: mouse, in vivo
Method: The animal model of intraoperative avidination for radionuclide treatment IART® was set up by performing a surgical cut in one hind limb of a mouse, infiltrating radiolabelled avidin in the surgical margins and surrounding tissues and measuring radioactivity in the treated limb at different time points after administration. In a parallel group of mice, the radioactive avidin was infiltrated to the limb without surgery.
The amount of radioactivity, after 1 and 24 hours from administration was similar in the surgically treated and not surgically treated animals. Therefore, further studies were performed by infiltrating avidin without surgery. […] Labelled avidin was separated from free iodine by chromatography on a PD-10 column (Amersham Biosciences, Uppsala, Sweden) and oxidized as previously described in the Example 1 without any prior HABA protection.
Mice were sacrificed 1, 24 or 48 hours after ^111In-ST2210 administration and the treated and controlateral limbs, kidney, liver and blood samples were collected and counted in a gamma-counter (Camberra Packard, Schwadorf, Austria).

[8] = Thermal stability and conformational changes by circular dichroism spectroscopy (melting curves); assay type: physicochemical; details: for p (slope of sigmoidal curve) / Tm: without biotin; for Tm: dichroic signal at 225 nm, 25-95° C.; for thermal denaturation reversibility: heated without biotin
Method: Thermal stability and conformational changes were determined by circular dichroism spectroscopy before and after oxidation, with and without 4 equivalents of biotin. Melting curves were recorded by following the decrease of dichroic signal at 225 nm in the temperature range 25-95° C. The point of inflection and slope (p) of sigmoidal curves were calculated by means of Boltzman fitting model of the scientific graphing and data analysis Origin® 7.0 software and represent the point of transition through the denatured condition.
For each specific compound, the thermal stability corresponds to the temperature which matches the point of inflection of the corresponding curve registered in the temperature range 25-95° C.

[9] = Permanence in rabbit mammary tissue; assay type: in vivo, rabbits; details: for % ID/breast (+/− SD) at 24 h: rabbit mammary tissue; for amount found in the mammary tissue: rabbit, after 24 hours
Method: OXavidinHABA was evaluated for its permanence in the mammary tissue in comparison to WTavidin. […] The animals were sacrificed after 24 h from injection and tissue samples of the injected area of about 200 mg were collected and counted in a gamma counter as previously described. The data are the average (+/−SD) of 3 determinations.

[10] = Tissue permanence of wild type, pegylated or oxidized avidins; assay type: in vivo, C57Bl/6 mice; details: 24 hours after i.m. injection in hind limb
Method: Radioactivity in the treated limb was measured by gamma counter (Camberra Packard, Schwadorf Austria).
Chemically modified avidins were previously described by other groups with the intent of improving the avidin half-life in circulation (Caliceti P., et al., J. Control. Release, 2002, 83, 97; Salmaso S., et al., Int. J. Pharm., 2007, 340, 20). […] After 24 hours from injection, the animals were sacrificed and radioactivity in the treated limb was measured by gamma counter (Camberra Packard, Schwadorf Austria).

[11] = test system: tumoral lesions of the mammary gland of NeuT mice; test: Therapeutic efficacy of pre-targeted brachytherapy in NeuT transgenic mice (whole mount analysis of mammary gland); assay type: in vivo, Balb-NeuT mice; details: compared to vehicle or WTavidin-treated breast; 90Y-ST2210 800 μCi
Method: Two animals/group were sacrificed 3 hours after administration and both breasts IV and III excised and counted in a gamma counter as above. Non target organs were also collected weighted and counted. Data are expressed as the % ID/g of tissue. The effect of this pre-targeted brachytherapy on the tumoral lesions were evaluated by whole mount analysis of the mammary gland as described previously (De Giovanni C., et al., Cancer Research, 2004, 64, 4001).

[12] = mouse, in vivo
Method: The injection into brain was performed through the left side of the skull, by using a Hamilton syringe, at a depth of 4-5 mm.

Substance: WTavidin: wild type avidin, glycoprotein of about 68 kDa present in egg white, high affinity for biotin [reference compound]
amount in the treated limb [1]: < 0.5 % ID/100 mg
haematoxylin/eosin staining of muscle [2]: no histological abnormalities
stoichiometry of interaction [3]: 3.0 molecules of ST2210 per molecule
KA [3]: 3.45e+06 ± 307000 M⁻¹
N (stoichiometry) [3]: 3.0 ± 0.016
association constants (KA) [3]: 3.45e+06 M⁻¹
BiotinDOTA binding % ± SD [4]: 100^@ %
distribution of 111In-ST2210 in non target organs [5]: similar
tissue half life [6]: 2 h
distribution in the non target organs (blood, kidney, liver) [7]: higher distribution
p (slope of sigmoidal curve) [8]: 14.7
Tm [8]: 79.0 °C
Tm ([8]; listed as Avidin): 79.0 ± 0.1 °C
Tm ([8]; listed as avidin): 79.0 °C
p (slope of sigmoidal curve) ([8]; listed as Avidin): 14.7 ± 0.3
p (slope of sigmoidal curve) ([8]; listed as avidin): 14.7
% ID/breast (+/− SD) at 24 h [9]: 8.5 (1.13) % ID/breast
amount found in the mammary tissue [9]: 8.5 % ID

Substance: PEGavidin: PEG-conjugated avidin prepared according to Caliceti [reference compound]
tissue permanence compared to WTavidin [10]: did not affect the tissue permanence

Substance: OXavidin 40 mM NaIO4: avidin oxidized with 40 mM NaIO4 without HABA
BiotinDOTA binding % ± SD [4]: 44.5 ± 0.9%

Substance: OXavidin 10 mM NaIO4: avidin oxidized with 10 mM NaIO4 without HABA
BiotinDOTA binding % ± SD [4]: 50.9% and 50.9 ± 2.4%

Substance: OXavidin: avidin oxidized with sodium periodate without prior HABA protection; NaIO4 concentration not stated at these places
stoichiometry of interaction [3]: 1.2 molecules of ST2210 per molecule
KA [3]: 645000 M⁻¹
tissue half life [6]: about 2 weeks
amount in the treated limb compared to native avidin [7]: more than double
distribution in the non target organs (blood, kidney, liver) [7]: lower distribution
thermal denaturation reversibility [8]: irreversible
p (slope of sigmoidal curve) [8]: 8.9 and 8.9 ± 0.1
Tm [8]: 74.3 °C and 74.3 ± 0.1 °C

Substance: OXavidinHABA 5 mM NaIO4: avidin oxidized with 5 mM NaIO4 in presence of 1 mM HABA
KA [3]: 5.42e+06 ± 590000 M⁻¹
N (stoichiometry) [3]: 1.9 ± 0.012
BiotinDOTA binding % ± SD [4]: 95.0 ± 1.7%

Substance: OXavidinHABA 40 mM NaIO4 + 1 mM HABA: avidin oxidized with 40 mM NaIO4 in presence of 1 mM HABA
BiotinDOTA binding % ± SD [4]: 73.0 ± 0.6%

Substance: OXavidinHABA: HABA-saturated avidin oxidized with sodium periodate; NaIO4 concentration not stated at these places
amount in the treated limb [1]: 17 % ID/100 mg
effect on cancer lesions of the mammary gland [11]: significant reduction of cancer lesions
tissue permanence compared to WTavidin [10]: increase of tissue permanence
residence in the brain [12]: about 12.65±6.59 % ID/100 mg of tissue
haematoxylin/eosin staining of muscle [2]: no histological abnormalities
stoichiometry of interaction [3]: 1.7 molecules of ST2210 per molecule
association constants (KA) [3]: 2.5e+06 M⁻¹
specific captation of 111In-ST2210 in treated tissue compared with WTavidin ([5]; 2 hours from i.v. injection, 48 hours after avidination): much higher
captation of second dose of 111In-ST2210 in treated limb ([5]; after a first dose of cold ST2210 24 hours before): comparable to that obtained with the single dose
distribution of 111In-ST2210 in non target organs [5]: similar
tissue half life [6]: about 2 weeks
thermal denaturation reversibility [8]: irreversible
p (slope of sigmoidal curve) [8]: 11.2 and 11.2 ± 0.4
Tm [8]: 78.1 °C and 78.1 ± 0.3 °C
% ID/breast (+/− SD) at 24 h [9]: 65.8 (0.08) % ID/breast
amount found in the mammary tissue [9]: 65.8 % ID

The next lines start with results.

BiotinDOTA binding % ± SD [4]: 99.0 ± 0.2%
Substance: OXavidinHABA 1 mM NaIO4: avidin oxidized with 1 mM NaIO4 in presence of 1 mM HABA
KA [3]: 4.58e+06 ± 249000 M⁻¹
N (stoichiometry) [3]: 2.5 ± 0.008

BiotinDOTA binding % ± SD [4]: 49.1% and 49.1 ± 2.1%
Substance: OXavidin 20 mM NaIO4: avidin oxidized with 20 mM NaIO4 without HABA
KA [3]: 645000 ± 56900 M⁻¹
N (stoichiometry) [3]: 1.2 ± 0.012

BiotinDOTA binding % ± SD [4]: 86.3%
BiotinDOTA binding % ± SD ([4]; listed as OXavidinHABA 10 mM NaIO4 + 1 mM HABA): 86.3 ± 1.6 %
Substance: OXavidinHABA 10 mM NaIO4: avidin oxidized with 10 mM NaIO4 in presence of 1 mM HABA
KA [3]: 3.34e+06 ± 212000 M⁻¹
N (stoichiometry) [3]: 1.7 ± 0.008

BiotinDOTA binding % ± SD [4]: 77.2 ± 0.9%
Substance: OXavidin 1 mM NaIO4: avidin oxidized with 1 mM NaIO4 without HABA

BiotinDOTA binding % ± SD [4]: 81.4%
BiotinDOTA binding % ± SD ([4]; listed as OXavidinHABA 20 mM NaIO4 + 1 mM HABA): 81.4 ± 1.0 %
Substance: OXavidinHABA 20 mM NaIO4: avidin oxidized with 20 mM NaIO4 in presence of 1 mM HABA
KA [3]: 2.5e+06 ± 132000 M⁻¹
N (stoichiometry) [3]: 1.5 ± 0.007

BiotinDOTA binding % ± SD [4]: 55.7 ± 2.2%
Substance: OXavidin 5 mM NaIO4: avidin oxidized with 5 mM NaIO4 without HABA

From patent publication US8562947B2, “Oxidized avidin with high residency time in the treated tissues” (Sigma-Tau Industrie Farmaceutiche Riunite S.p.A., priority 2007, dated 2013)
